{"source": "patent US4137311A", "about": "“Synergistic compositions and method of use” (William H. Rorer, Inc., priority 1977, dated 1979)", "key": {"[1]": {"tested_on": "Croton-Oil Induced Inflammation To The Mouse's Ear", "experiment": "Delayed co-application to existing croton-oil induced inflammation of the mouse's ear (Table II), edema weight and percent inhibition", "details": "for Ear edema weight (± S.D.): control 14.9±3.8", "protocol": "(§1) Hydrocortisone and bis-(2-pyridyl-1-oxide) disulfide magnesium sulfate were suspended or dissolved in ethanol U.S.P. (200 proof) at concentrations of 20, 40 and 80 mg/ml of bis-(2-pyridyl-1-oxide) disulfide magnesium sulfate and 0.01, 1 and 10 mg of hydrocortisone.\nGroups of mice treated with only the croton oil irritant solution served as controls. The right ear of mice in any group was not treated.\n(§2) Four hours after application of the irritant vehicle (three hours after drug application) both ears were amputated and one circular section was exercised from each ear using a No. 4 cork borer (7 mm i.d.). The ear sections were then weighed. The increase in weight due to edema formation caused by the croton oil in the treated ear and reduction of the edema caused by treatment with bis-(2-pyridyl-1-oxide) disulfide magnesium sulfate hydrocortisone or combinations thereof was determined by subtracting the weight of the untreated right ear section from that of the treated left ear section."}, "[2]": {"tested_on": "Croton-Oil Induced Inflammation To The Mouse's Ear", "experiment": "Immediate co-administration: croton-oil induced inflammation of the mouse's ear (Table I), edema weight and percent inhibition", "details": "immediate application; for Ear edema weight (± S.D.): control 16.9±3.0", "protocol": "Mathematical determination of the synergistic effects of combinations of bis-(2-pyridyl-1-oxide) disulfide magnesium sulfate and hydrocortisone was done using a modification of the method described by Van Arman, C.\nas §1, §2\nEthanol was used as the vehicle; pyridine contained in the usual irritant vehicle as described previously produces an alkaline reaction. Controls were treated with only the croton oil vehicle.\nA fixed dose of 4 mg/ear of bis-(2-pyridyl-1-oxide) disulfide magnesium sulfate was co-applied with 0.01, 0.1 and 1 mg/ear of hydrocortisone."}, "[3]": {"experiment": "Solubility in ethanol U.S.P. (200 proof)"}, "[4]": {"details": "delayed application, hydrocortisone (free alcohol) alone 0.01 mg/ear"}, "[5]": {"details": "delayed application, hydrocortisone (free alcohol) alone 0.1 mg/ear"}, "[6]": {"details": "delayed application, hydrocortisone (free alcohol) alone 1.0 mg/ear"}, "[7]": {"details": "hydrocortisone alone 0.1 mg/ear"}, "[8]": {"details": "hydrocortisone alone 1.0 mg/ear"}, "[9]": {"details": "delayed application, adduct alone 4 mg/ear"}, "[10]": {"details": "delayed application, adduct alone 8 mg/ear"}, "[11]": {"details": "adduct alone, topical dose 4 mg/ear"}}, "note": "Where a name gives a salt, the structure may show the parent alone.", "data": [{"smiles": "C[C@]12CCC(=O)C=C1CC[C@@H]1[C@@H]2[C@@H](O)C[C@@]2(C)[C@H]1CC[C@]2(O)C(=O)CO", "note": "[Hydrocortisone]", "values": [{"measurement": "Percent inhibition of ear edema", "setting": "[1]; [4]", "result": 17.5, "unit": "%"}, {"measurement": "Ear edema weight (± S.D.)", "setting": "[1]; [4]", "result": "12.3 ± 3.3", "unit": "mg"}, {"measurement": "Percent inhibition of ear edema", "setting": "[1]; [5]", "result": 40.3, "unit": "%"}, {"measurement": "Ear edema weight (± S.D.)", "setting": "[1]; [5]", "result": "8.9 ± 2.3", "unit": "mg"}, {"measurement": "Percent inhibition of ear edema", "setting": "[1]; [6]", "result": 58.4, "unit": "%"}, {"measurement": "Ear edema weight (± S.D.)", "setting": "[1]; [6]", "result": "6.2 ± 2.4", "unit": "mg"}, {"measurement": "dose of hydrocortisone by itself necessary to achieve a similar response (46.3%)", "setting": "[1]; delayed application, hydrocortisone alone", "result": 0.25, "unit": "mg/ear"}, {"measurement": "expected anti-inflammatory response by extrapolation of dose-response line", "setting": "[1]; hydrocortisone by itself 0.00125 mg/ear", "result": "little, if any, significant anti-inflammatory response"}, {"measurement": "Percent inhibition of ear edema", "setting": "[2]; hydrocortisone alone 0.01 mg/ear (Table I)", "result": 23.1, "unit": "%"}, {"measurement": "Ear edema weight (± S.D.)", "setting": "[2]; hydrocortisone alone 0.01 mg/ear", "result": "13.0 ± 3.8", "unit": "mg"}, {"measurement": "Percent inhibition of ear edema", "setting": "[2]; [7]", "result": 53.3, "unit": "%"}, {"measurement": "Ear edema weight (± S.D.)", "setting": "[2]; [7]", "result": "7.9 ± 2.3", "unit": "mg"}, {"measurement": "Percent inhibition of ear edema", "setting": "[2]; [8]", "result": 67.5, "unit": "%"}, {"measurement": "Ear edema weight (± S.D.)", "setting": "[2]; [8]", "result": "5.5 ± 2.6", "unit": "mg"}, {"measurement": "inhibition", "setting": "[2]; hydrocortisone alone, dose printed in text 0.01 mg/ear", "result": 53.3, "unit": "%"}]}, {"smiles": "[O-][n+]1ccccc1SSc1cccc[n+]1[O-]", "note": "[bis-(2-pyridyl-1-oxide) disulfide magnesium sulfate]", "values": [{"measurement": "solubility in the alcohol vehicle", "setting": "[3]", "result": "formed a fine suspension"}, {"measurement": "expected anti-inflammatory response by extrapolation of dose-response line", "setting": "[1]; adduct by itself 0.87 mg/ear", "result": "little, if any, significant anti-inflammatory response"}, {"measurement": "Ear edema weight (± S.D.)", "setting": "[1]; delayed application, 1 hour after croton oil, adduct alone 2 mg/ear", "result": "12.7 ± 2.4", "unit": "mg"}, {"measurement": "dose of adduct by itself necessary to achieve a similar response (46.3%)", "setting": "[1]; delayed application, adduct alone", "result": 17.7, "unit": "mg/ear"}, {"measurement": "Percent inhibition of ear edema", "setting": "[1]; delayed application, adduct alone 2 mg/ear", "result": 14.8, "unit": "%"}, {"measurement": "Percent inhibition of ear edema", "setting": "[1]; [9]", "result": 23.5, "unit": "%"}, {"measurement": "Ear edema weight (± S.D.)", "setting": "[1]; [9]", "result": "11.4 ± 2.8", "unit": "mg"}, {"measurement": "Percent inhibition of ear edema", "setting": "[1]; [10]", "result": 35.6, "unit": "%"}, {"measurement": "Ear edema weight (± S.D.)", "setting": "[1]; [10]", "result": "9.6 ± 2.2", "unit": "mg"}, {"measurement": "Percent inhibition of ear edema", "setting": "[2]; [11]", "result": 24.9, "unit": "%"}, {"measurement": "Ear edema weight (± S.D.)", "setting": "[2]; [11]", "result": "12.7 ± 3.0", "unit": "mg"}]}]}
